According to PubChem BioAssay AID2696 (Johns Hopkins Ion Channel Center, 2010):

Target: Short transient receptor potential channel 6 (Mus musculus) (UniProt Q61143)
Assay: TRPC6 inhibitor potency, dose response, cell-based, mouse TRPC6, HEK293, membrane potential (AID 2696)
Details: TRPC6-expressing HEK293 cells, membrane potential dye fluorescence, acetylcholine-stimulated

Chain of Short transient receptor potential channel 6 (Mus musculus) (Q61143 whole entry, looked up): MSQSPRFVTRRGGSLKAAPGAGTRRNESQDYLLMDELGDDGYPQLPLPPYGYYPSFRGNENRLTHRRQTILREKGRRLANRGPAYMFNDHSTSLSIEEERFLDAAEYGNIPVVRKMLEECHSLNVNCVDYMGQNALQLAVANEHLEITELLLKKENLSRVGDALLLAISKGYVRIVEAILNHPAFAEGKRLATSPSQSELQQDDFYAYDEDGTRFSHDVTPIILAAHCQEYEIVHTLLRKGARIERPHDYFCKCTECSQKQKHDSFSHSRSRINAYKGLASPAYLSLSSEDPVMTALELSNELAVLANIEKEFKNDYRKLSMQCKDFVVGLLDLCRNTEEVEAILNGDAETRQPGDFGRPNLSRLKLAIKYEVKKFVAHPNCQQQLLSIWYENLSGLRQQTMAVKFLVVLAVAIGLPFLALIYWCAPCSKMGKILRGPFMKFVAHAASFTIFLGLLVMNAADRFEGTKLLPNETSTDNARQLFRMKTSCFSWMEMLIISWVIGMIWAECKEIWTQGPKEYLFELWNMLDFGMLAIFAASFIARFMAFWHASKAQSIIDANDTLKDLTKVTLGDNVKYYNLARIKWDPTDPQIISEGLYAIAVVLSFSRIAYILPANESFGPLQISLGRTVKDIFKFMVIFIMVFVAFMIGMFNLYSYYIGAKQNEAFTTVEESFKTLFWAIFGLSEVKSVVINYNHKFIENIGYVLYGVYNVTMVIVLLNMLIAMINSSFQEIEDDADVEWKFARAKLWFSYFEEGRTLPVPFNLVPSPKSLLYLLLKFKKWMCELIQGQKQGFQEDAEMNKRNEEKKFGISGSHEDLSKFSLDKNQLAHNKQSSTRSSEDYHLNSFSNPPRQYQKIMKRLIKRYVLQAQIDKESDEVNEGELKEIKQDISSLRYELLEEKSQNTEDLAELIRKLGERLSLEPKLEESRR

First: Cc1c(CCCN)c2ccccc2n1Cc1ccccc1
Second: Cc1c(C)n(Cc2ccccc2)c2ccc(C(=O)OCCCN(C)C)cc12
The IC50 of the first is 1.6-fold higher: 70.8 µM for the first, 44.7 µM for the second.

Compared with CC1CCC(C(C)C)C(OCC[N+](C)(C)C)C1 (centres undefined), CC(C)[N+](C)(CCOC(=O)C1c2ccccc2Oc2ccccc21)C(C)C is 40-fold lower in IC50: 2.82 µM for the first, 0.07 µM for the second.

Cc1cccc(-c2nc(NCCCN3CCOCC3)c3ccccc3n2)c1 and Cc1ccc(-c2nc(C(=O)NCCCN3CCOCC3)cc3c2[nH]c2ccccc23)cc1 are within 1.5-fold of each other in IC50: 70.8 µM for the first, 50.1 µM for the second.

Compared with CC1(C(O)(C#CC[N+]2(C)CCCCC2)c2ccccc2)CCCC1 (centres undefined), C[N+]1(CCOC(=O)C2(c3ccccc3)CCCC2)CCCCC1 is 110-fold higher in IC50: 0.14 µM for the first, 15.8 µM for the second.

First: O=C(CNCCC1=CCCCC1)Nc1ccc(N2CCCCCC2)cc1
Second: OC(CCN1CCCC1)(c1ccccc1)C1CCCCC1 (centres undefined)
The IC50 of the first is 16-fold higher: 70.8 µM for the first, 4.47 µM for the second.

Nc1c2ccccc2nc2ccccc12 and Nc1cccc2nc3ccccc3cc12 are within 1.5-fold of each other in IC50: 70.8 µM for the first, 50.1 µM for the second.

CC(C)(C)NCc1cc(Br)ccc1OC1CCCC1 and CCCn1c(=N)c(C(=O)NC2CCCC2)cc2c(=O)n3cccc(C)c3nc21 are the same in IC50: 44.7 µM for the first, 44.7 µM for the second.

First: Cc1cc(N=Nc2ccccc2)c(NCC(O)C(O)C(O)CO)cc1C (centres undefined)
Second: COc1ccc2ccccc2c1CNC(C)CCc1ccccc1 (centres undefined)
The IC50 of the first is 3.2-fold higher: 50.1 µM for the first, 15.8 µM for the second.

Compared with COc1ccccc1C(=O)NCC1CCN(c2ccc(S(=O)(=O)N3CCOCC3)cc2)CC1, COc1ccccc1N1CCN(Cc2ccc(O)c3ncccc23)CC1 is 2-fold higher in IC50: 19.9 µM for the first, 39.8 µM for the second.

First: CCOc1ccc(NC(=O)c2c(NC(=O)CN3CCN(C)CC3)sc3c2CCC3)cc1
Second: CCOC(=O)N1CCN(Cc2nc(-c3ccc(Cl)cc3)no2)CC1
The IC50 of the first is 1.8-fold lower: 44.7 µM for the first, 79.4 µM for the second. The first is the more potent here.

Compared with c1ccc2c(c1)CCc1ccccc1C2=C1CCNCC1, CC[N+]1(C)CCC(=C2c3ccccc3CC(=O)c3sccc32)CC1 (centres undefined) is 2.2-fold lower in IC50: 28.2 µM for the first, 12.6 µM for the second. The second is the more potent here.

Going from COc1ccc2nc(C)cc(Nc3ccc(N4CCN(C)CC4)cc3)c2c1 to Cc1ccc(CNc2ccc3c(c2)ncn3C(C)(C)C)cc1, the IC50 falls from 79.4 µM to 44.7 µM (1.8-fold). The second is the more potent here.

CCCCNC(=O)c1cc2c(=O)n3cccc(C)c3nc2n(Cc2ccncc2)c1=N and CCN(CC)CCCNc1nc2ccccc2c2nc(-c3ccncc3)nn12 are the same in IC50: 44.7 µM for the first, 44.7 µM for the second.

S=C1N(c2ccccc2)C(c2ccc(Cl)cc2)N2CCCN12 (centres undefined) and Cc1ccc(N2C(=O)CSC2c2c(F)cccc2Cl)cc1 (centres undefined) are the same in IC50: 17.8 µM for the first, 17.8 µM for the second.

Going from CCN(CC)CCCNc1nc(-n2nc(C)cc2C)nc2sc3c(c12)CC(C)(C)OC3 to CCN(CC)CCSc1nnc2c3ccccc3n(Cc3ccccc3)c2n1, the IC50 rises from 22.4 µM to 44.7 µM (2-fold).

Compared with OC(CCN1CCCCC1)(c1ccccc1)c1ccccc1, OC(C#CCCN1CCCCC1)(c1ccccc1)c1ccccc1 is 14-fold higher in IC50: 2.82 µM for the first, 39.8 µM for the second.

Compared with CC(C)NCC(O)Cn1c2c(c3ccccc31)CCc1c-2cnn1-c1ccccc1 (centres undefined), COc1ccc2ccccc2c1CNCCc1ccccc1 is 1.6-fold lower in IC50: 79.4 µM for the first, 50.1 µM for the second. The second is the more potent here.

Compared with CCOCCN1CCN(C2c3ccccc3CSc3ccccc32)CC1 (centres undefined), CCN(CC)CCCOC(=O)C(c1ccccc1)c1ccccc1 is 16-fold lower in IC50: 50.1 µM for the first, 3.16 µM for the second. The second is the more potent here.

CC(C)c1ccc(N2C(=O)CC(Sc3nc4ccccc4o3)C2=O)cc1 (centres undefined) and Nc1nc(Nc2cccc(F)c2)nc2ccccc12 are within 1.5-fold of each other in IC50: 44.7 µM for the first, 39.8 µM for the second.

Cc1cc(C)c2sc(N(CCCN(C)C)C(=O)c3ccc(Br)s3)nc2c1 and CCN(CC)CC(=O)Nc1cc(N(C)C)nc2ccccc12 are within 1.5-fold of each other in IC50: 63.1 µM for the first, 70.8 µM for the second.

Going from CC[N+](C)(C)CC/C=C1/c2ccccc2Sc2ccc(Cl)cc21 to CC[N+](C)(CC)CCC/C(=N/O)C(O)(c1ccccc1)c1ccccc1, the IC50 rises from 1.58 µM to 15.8 µM (10-fold). The first is the more potent here.

CN(C)c1cc(NC(=O)CN2CCCC2)c2ccccc2n1 and Cc1cc(C)c2nc(N3CCC(C(=O)NCCCN4CCCCC4)CC3)sc2c1 are within 1.5-fold of each other in IC50: 44.7 µM for the first, 39.8 µM for the second.

Going from C#CC[N+]1(C)[C@@H]2CC(OC(=O)C(CO)c3ccccc3)C[C@H]1C(O)C2 (some centres undefined) to CCOC(=O)c1sc(=S)n(-c2ccccc2Cl)c1SC, the IC50 rises from 3.55 µM to 12.6 µM (3.5-fold).

First: Oc1ccccc1Oc1ncc(Br)c(N2CCOCC2)n1
Second: COc1ccccc1-n1c(-c2ccccc2)c[n+]2c1CCc1ccccc1-2
The IC50 of the first is 2-fold higher: 39.8 µM for the first, 19.9 µM for the second. The second is the more potent here.

In the case of CN(C)C(C)(C)C#CC(O)(c1ccccc1)c1ccccc1, the IC50 is reported as 39.8 µM.
